This is an account of results in ChEMBL document CHEMBL1201862, “PubChem BioAssay data set” (2004).

The structures appear in SMILES notation. Active and inactive are the calls of the source.

Data set [1] in a line: alpha-synuclein stem-loop luciferase translation blockers – H4 neuroglioma cells, luminescence, confirmation (AID 1988). Type of data set: functional, cell-based.
Data set [2] is described as follows: Luminescence Cell-Based Dose Response HTS to Identify Inhibitors of 5'UTR Stem-Loop Driven Prion Protein mRNA Translation in H4 Neuroglioblastoma Cells. [Related pubchem assays: 1827 (Project Summary), 1813 (Primary HTS)]. It counts as functional.
Data set [3] is described as follows: luciferase reporter signal suppression in cells – H4 neuroglioma cells, luminescence, dose response (AID 1990). It counts as functional, cell-based. (In a reporter assay the amount or activity of a reporter protein is the signal.)
Another data set has as its target T1, Cytochrome P450 1A2 (Homo sapiens, UniProt P05177).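 Also: PubChem cytochrome P450 panel assay, CYP1A2 panel member.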
T1 sequence (P05177 whole entry): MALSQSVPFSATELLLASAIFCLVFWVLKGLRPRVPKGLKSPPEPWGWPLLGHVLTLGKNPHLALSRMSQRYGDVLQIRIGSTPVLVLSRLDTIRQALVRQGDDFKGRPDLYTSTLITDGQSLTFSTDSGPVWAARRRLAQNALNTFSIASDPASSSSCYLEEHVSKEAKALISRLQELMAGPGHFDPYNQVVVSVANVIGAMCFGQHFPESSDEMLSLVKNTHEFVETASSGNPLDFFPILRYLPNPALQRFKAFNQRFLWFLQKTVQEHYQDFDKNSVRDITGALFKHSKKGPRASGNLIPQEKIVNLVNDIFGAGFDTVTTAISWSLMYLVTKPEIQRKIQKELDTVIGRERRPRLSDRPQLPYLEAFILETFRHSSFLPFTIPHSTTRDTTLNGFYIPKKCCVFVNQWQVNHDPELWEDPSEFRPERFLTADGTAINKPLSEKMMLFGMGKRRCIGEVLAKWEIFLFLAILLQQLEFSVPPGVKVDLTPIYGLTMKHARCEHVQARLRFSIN

A further data set concerns the target Cytochrome P450 2C19 (Homo sapiens, UniProt P33261). Briefly: Cytochrome panel assay with activity outcomes. Panel member name: p450-cyp2c19 Compounds with AC50 equal or less than 10 uM are considered active. Type of data set: functional.
The next data set has as its target Cytochrome P450 2D6 (Homo sapiens, UniProt P10635).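 Also: CYP2D6 member of a cytochrome P450 panel assay.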
Another data set has as its target Cytochrome P450 3A4 (Homo sapiens, UniProt P08684).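 Also: CYP3A4 tested as one member of a cytochrome P450 panel screen.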
Another data set addresses Cytochrome P450 2C9 (Homo sapiens, UniProt P11712).

Cytochrome P450 3A4, sequence (P08684 whole entry): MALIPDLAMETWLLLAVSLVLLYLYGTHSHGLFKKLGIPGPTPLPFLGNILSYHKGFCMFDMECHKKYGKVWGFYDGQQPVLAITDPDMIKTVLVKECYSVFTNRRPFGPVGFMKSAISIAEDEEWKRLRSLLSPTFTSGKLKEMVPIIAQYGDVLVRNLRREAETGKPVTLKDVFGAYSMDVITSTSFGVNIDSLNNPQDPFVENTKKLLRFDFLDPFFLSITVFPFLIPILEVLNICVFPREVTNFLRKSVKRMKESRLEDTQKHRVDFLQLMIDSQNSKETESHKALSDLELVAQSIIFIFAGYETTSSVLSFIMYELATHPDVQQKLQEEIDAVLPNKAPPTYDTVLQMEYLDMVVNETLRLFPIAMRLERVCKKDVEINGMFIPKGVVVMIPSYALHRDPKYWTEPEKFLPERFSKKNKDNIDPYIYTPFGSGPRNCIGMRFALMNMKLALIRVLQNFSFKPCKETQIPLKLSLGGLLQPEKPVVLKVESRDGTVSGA
Cytochrome P450 2C9, sequence (P11712 whole entry): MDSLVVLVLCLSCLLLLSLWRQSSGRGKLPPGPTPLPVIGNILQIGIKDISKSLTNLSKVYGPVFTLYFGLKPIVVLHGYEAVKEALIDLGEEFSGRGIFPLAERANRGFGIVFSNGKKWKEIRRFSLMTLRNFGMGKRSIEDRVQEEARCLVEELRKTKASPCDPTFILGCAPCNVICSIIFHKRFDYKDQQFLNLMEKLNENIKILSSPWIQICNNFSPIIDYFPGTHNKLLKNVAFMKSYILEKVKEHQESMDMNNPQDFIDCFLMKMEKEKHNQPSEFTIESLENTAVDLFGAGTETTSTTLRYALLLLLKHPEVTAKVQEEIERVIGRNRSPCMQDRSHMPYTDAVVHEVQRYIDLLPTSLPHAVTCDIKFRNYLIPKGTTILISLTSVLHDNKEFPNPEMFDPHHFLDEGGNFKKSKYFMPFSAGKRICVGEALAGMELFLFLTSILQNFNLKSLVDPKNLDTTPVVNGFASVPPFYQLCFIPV
Cytochrome P450 2C19, sequence (P33261 whole entry): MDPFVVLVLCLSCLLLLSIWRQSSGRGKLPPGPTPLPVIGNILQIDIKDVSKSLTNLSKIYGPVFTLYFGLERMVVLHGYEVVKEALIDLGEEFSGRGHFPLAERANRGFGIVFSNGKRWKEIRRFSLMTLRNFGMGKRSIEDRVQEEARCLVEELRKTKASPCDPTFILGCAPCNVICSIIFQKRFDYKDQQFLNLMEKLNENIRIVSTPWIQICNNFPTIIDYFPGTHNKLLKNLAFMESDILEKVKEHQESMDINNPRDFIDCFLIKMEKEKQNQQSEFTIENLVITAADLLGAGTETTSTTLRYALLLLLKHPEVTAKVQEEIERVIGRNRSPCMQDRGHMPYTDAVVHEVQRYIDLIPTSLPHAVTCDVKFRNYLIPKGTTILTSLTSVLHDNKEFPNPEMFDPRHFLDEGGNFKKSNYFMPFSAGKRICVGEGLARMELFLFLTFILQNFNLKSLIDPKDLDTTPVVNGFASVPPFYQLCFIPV
Cytochrome P450 2D6, sequence (P10635 whole entry): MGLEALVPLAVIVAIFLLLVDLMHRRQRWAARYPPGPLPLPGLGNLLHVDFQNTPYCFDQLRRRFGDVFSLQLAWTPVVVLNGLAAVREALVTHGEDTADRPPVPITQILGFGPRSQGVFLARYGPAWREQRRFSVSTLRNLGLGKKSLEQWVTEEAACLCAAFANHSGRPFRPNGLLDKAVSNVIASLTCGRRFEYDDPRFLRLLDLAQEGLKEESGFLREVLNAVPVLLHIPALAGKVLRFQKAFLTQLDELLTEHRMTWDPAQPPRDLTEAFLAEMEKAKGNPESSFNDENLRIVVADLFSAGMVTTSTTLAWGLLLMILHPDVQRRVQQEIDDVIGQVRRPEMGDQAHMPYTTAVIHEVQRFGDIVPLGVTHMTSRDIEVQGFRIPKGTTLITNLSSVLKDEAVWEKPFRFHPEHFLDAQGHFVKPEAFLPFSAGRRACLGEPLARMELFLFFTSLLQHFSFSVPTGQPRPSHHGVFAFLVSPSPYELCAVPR

The term EC50 denotes the concentration that produces a half-maximal response. For `O=[N+]([O-])c1cc([N+](=O)[O-])c(Oc2cccc(Cl)c2Cl)cc1NN1CCCCC1`, the values for the half-maximal effective concentration (EC50) in data set [1], in data set [2] and in data set [3] were 58.3 µM (active), > 120 µM (not active) and 11.8 µM (active), respectively.
Usually AC50 stands for the concentration giving half of the maximal activity seen. As for `CN(C)c1ncc2nc(-c3ccccc3)c(=O)n(-c3ccccc3)c2n1`, the AC50 at Cytochrome P450 1A2 was 0.398 µM (inconclusive).
For the compound `O=C(Nc1ccccc1)N1CCCC2(CCN(C(=O)c3cc(C(F)(F)F)cc(C(F)(F)F)c3)CC2)C1`, on Cytochrome P450 1A2, the half-maximal activity concentration (AC50) was 31.6 µM (inconclusive).
With `Cc1cccc(NC(S)=NNC(=O)CCn2cc(C)cn2)c1`, the concentration at half-maximal activity (AC50) is 25.1 µM (inconclusive) on Cytochrome P450 1A2 and “inconclusive” at Cytochrome P450 2C19.
For `COC(=O)/C=C/c1ccccc1S(=O)(=O)N(Cc1ccccc1)Cc1ccco1`, the EC50 was 5.96 µM (active) in data set [1], 9.84 µM (active) in data set [2] and 8.38 µM (inconclusive) in data set [3].
Turning to `CN(C)S(=O)(=O)c1ccc(Nc2ccc(O)c3c2C(=O)c2c([N+](=O)[O-])ccc(O)c2C3=O)cc1`, the AC50 at Cytochrome P450 2D6 was 0.794 µM (inconclusive); at Cytochrome P450 3A4, 3.98 µM (inconclusive); at Cytochrome P450 2C9 it was 3.16 µM (inconclusive).
Turning to `COc1cc(-c2c(C#N)c(N)nc3c2CCCC3)cc(OC)c1OC`, the EC50 in data set [1] is 19.7 µM (active); in data set [2], 17.1 µM (active); in data set [3], 27.4 µM (active).
Take `COc1ccccc1CN1CCCC2(CCN(C(C)=O)CC2)C1`: at Cytochrome P450 1A2, the AC50 was 25.1 µM (inconclusive).
For the compound `O=C1N[C@@]2(CN3CCC2CC3)C(=O)N1CN(Cc1ccccc1)c1ccccc1`, the AC50 at Cytochrome P450 1A2 is 0.398 µM (inconclusive); on Cytochrome P450 2C19 (read-out: AC50), 1.58 µM (inconclusive).
In the case of `COc1ccc(C)cc1NC(=O)CN1CCN(S(=O)(=O)c2ccc(F)cc2)CC1`, the concentration at half-maximal activity (AC50) at Cytochrome P450 1A2 is 0.0398 µM (inconclusive).
For the compound `O=C(Nc1ccc(Oc2ncnc3cc(Cl)ccc23)nc1)c1cccs1`, the EC50 in data set [1], in data set [2] and in data set [3] was > 120 µM (not active) throughout.
On to `O=c1c2ccc([N+](=O)[O-])c3cccc(c32)c2nc3ccccc3n12`, for which the EC50 in data set [1], in data set [2] and in data set [3] was < 0.1 µM (active) each time.
Regarding `O=c1c(-c2ccccc2)c(O)c2cccc3c2n1CCC3`, the AC50 on Cytochrome P450 1A2 was 11.2 µM (inconclusive).
Regarding `Cc1cc(SC(C)C(=O)NCC(=O)Nc2ccc(F)c(F)c2F)nc2ccccc12` (stereo not given), the half-maximal effective concentration (EC50) in data set [1] was 18 µM (active); in data set [2], 92 µM (active); in data set [3], > 120 µM (not active).
`CC(=O)[C@H](C(=N)C#N)C(=O)Nc1ccccc1`: the AC50 is 6.31 µM (inconclusive) at Cytochrome P450 1A2 and “inconclusive” at Cytochrome P450 2C19.
Regarding `CSc1nc(NCc2ccco2)c2sc3nc(C(C)C)c4c(c3c2n1)CC(C)(C)OC4`, the EC50 in data set [1] is > 120 µM (not active); in data set [2] it was > 120 µM (not active); in data set [3] it was 27.5 µM (active).
Consider `O=C(O)c1ccc(Oc2nc3ccccc3s2)cc1`, for which the concentration at half-maximal activity (AC50) at Cytochrome P450 1A2 is 3.16 µM (inconclusive).
Turning to `Cn1c(=O)c2c(-c3cccc(F)c3)c3c(nc2n(C)c1=O)-c1ccccc1C3O` (stereo not given), the half-maximal activity concentration (AC50) was 79.4 µM (inconclusive) at Cytochrome P450 2D6, 22.4 µM (inconclusive) on Cytochrome P450 3A4 and 2.82 µM (inconclusive) on Cytochrome P450 2C9.
With `CCCCNC(=O)CN1C(=O)NC2(CCCc3ccccc32)C1=O` (stereo not given), the figures for the AC50 at Cytochrome P450 1A2 and at Cytochrome P450 2C19 (read-out: AC50) were 25.1 µM (inconclusive) and 31.6 µM (inconclusive), respectively.
For `Cc1c(N2C(=O)CS/C2=N\N=C\c2ccc(Cl)cc2)c(=O)n(-c2ccccc2)n1C`, the AC50 was 28.2 µM (inconclusive) at Cytochrome P450 3A4, 31.6 µM (inconclusive) on Cytochrome P450 2C9 and 39.8 µM (inconclusive) at Cytochrome P450 2C19 (read-out: AC50).
On to `COC(=O)C1=C(C)NC(C)=C(C(=O)OC(C)C)C1c1cccc2nonc12` (stereo not given) [ISRADIPINE], for which the half-maximal activity concentration (AC50) on Cytochrome P450 1A2 is 31.6 µM (inconclusive).
